In patent publication US20210009551A1, “COMPOUNDS AND METHODS FOR TREATING FIBROSIS OR CANCER” (THE REGENTS OF THE UNIVERSITY OF CALIFORNIA, priority 2016, published 2021):
Values joined by “and” are separate entries in the source; they are usually repeats but may differ in a detail not shown here. Equal entries are not always repeated. “Also recorded” adds a separate entry of the source. Blank lines part the entries; values can stand above or below the compound they belong to.

Columns and labels:
[1] = biological target: T1, human TGFbeta receptor I and II (Homo sapiens, UniProt P36897); assay: In vitro TGFβ receptor kinase assay (pull down); assay type: biochemical; conditions: 20 μM
T1 construct: expressed in transfected cells; host or cells: A549 cells, anti-Flag immunoprecipitate on Protein G-agarose
T1 sequence (P36897 34-503): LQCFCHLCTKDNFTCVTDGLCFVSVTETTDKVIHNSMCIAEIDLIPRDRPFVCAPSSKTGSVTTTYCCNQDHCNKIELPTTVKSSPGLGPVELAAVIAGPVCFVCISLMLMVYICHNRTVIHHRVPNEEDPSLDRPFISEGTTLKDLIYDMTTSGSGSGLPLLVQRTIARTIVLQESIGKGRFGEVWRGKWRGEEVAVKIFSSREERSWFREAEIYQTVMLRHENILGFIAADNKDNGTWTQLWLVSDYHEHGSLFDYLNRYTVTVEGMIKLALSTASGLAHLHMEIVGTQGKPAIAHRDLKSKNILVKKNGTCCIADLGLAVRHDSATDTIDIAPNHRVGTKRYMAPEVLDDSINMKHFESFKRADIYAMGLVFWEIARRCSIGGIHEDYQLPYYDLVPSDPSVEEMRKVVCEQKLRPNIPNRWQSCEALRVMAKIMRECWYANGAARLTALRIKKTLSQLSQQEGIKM
Protocol: In vitro TGFβ receptor kinase assay. A549 cells were transiently co-transfected with Flag-tagged human TGFbeta receptor I and II. After 24 hours the cells were lysed in 1% NP40 lysis buffer (1% NP40, 20 mM Tris pH7.6, 200 mM NaCl plus protease inhibitor cocktail, 10 mM NaF, 1 mM Na3VO4), and the type I and II receptors were immunoprecipitated using anti-Flag antibody and Protein G-agarose (Roche). The beads were washed three times with kinase buffer (0.01% Triton X-100, 25 mM HEPES, pH 7.4, 2 mM MnCl2, 10 mM MgCl2, 20 μM DTT, 0.1 mM NaF, 0.1 mM Na3 VO4). The kinase reactions were initiated by addition of 0.1 mM ATP in the presence or absence of inhibitors or lysate from A549 cells pre-treated with corilagin. The kinase reactions were terminated by addition of an equal volume of 2×sample buffer. The TGFbeta receptor kinase activity was analyzed by SDS-PAGE and immunoblotting with anti-phosphotyrosine monoclonal antibody 4G10 (EMD Millipore) and anti-Flag antibody.

[2] = system: C57BL/6 mice, intratracheal bleomycin; assay: Bleomycin fibrosis model; assay type: in vivo
Protocol: For histological assessment of lung collagen, frozen sections of the left lung were stained using Masson's Trichrome stain kit (American MasterTech, Lodi, Calif., USA).
Bleomycin fibrosis model. Eight-week old C57BL/6 mice were intratracheally instilled with saline or 1.9 units/kg of bleomycin (Sigma-Aldrich). Mice were implanted with osmotic pumps loaded with ellagic acid salt (24 mg/kg/day, Day 10-Day 17), fed with red raspberry diet (Day 0-Day 21), or gavaged with corilagin (100 mg/kg, Day 10-Day 21). Controls were treated with control pump, control diet, or vehicle in the same formulation. The lungs were lavaged and followed by OCT embedding for imaging or snap freezing in liquid nitrogen for protein extraction or hydroxyproline assay.
Collagen content Lung or aorta collagen content was evaluated using hydroxyproline assay. Briefly, whole left lung tissue or aorta was hydrolyzed in 1 ml 12N HCl at 110° C. for 24 h and the hydroxyproline was detected by incubating with Chloramine T and p-dimethylaminobenzaldehyde and the absorbance was measured at 550 nm. Each sample was run in triplicate. Collagen content in lung or aorta tissues was expressed as micrograms of collagen per lung or aorta and was converted from micrograms of hydroxyproline.

[3] = Solubility (statement); assay type: physicochemical
[4] = system: TGFβ1-induced epithelial-mesenchymal transition (EMT) in A549 adenocarcinoma cells; assay: TGFβ1-induced EMT in A549 cells (image-based screen, immunoblot); assay type: cell-based; conditions: catechins 1 and 10 μM, 48 h
Protocol: High throughput screen and high content imaging analysis. A549 cell-based screening of inhibitors to TGFβ1-induced EMT from a bioactive small molecule library was performed in 384-well plate format and the images were captured and analyzed using GE IN Cell 2000 as described previously^16.
(§1) Immunoblot. Pulverized tissue and cells were lysed in RIP A buffer (150 mM NaCl, 50 mM Tris, pH 8.0, 1% Triton X-100, 0.5% sodium deoxycholate, 0.1% SDS, supplemented with protease and phosphatase inhibitors) and analyzed by immunoblotting. Densitometry was quantified using NIH Imaged software.

[5] = biological target: T2, human LOXL2 (Homo sapiens, UniProt Q9Y4K0); assay: Collagen crosslinking induced by recombinant LOXL2 in lung fibroblasts (Sircol assay); assay type: cell-based; conditions: primary human lung fibroblasts, 7 days
T2 sequence (Q9Y4K0 26-774): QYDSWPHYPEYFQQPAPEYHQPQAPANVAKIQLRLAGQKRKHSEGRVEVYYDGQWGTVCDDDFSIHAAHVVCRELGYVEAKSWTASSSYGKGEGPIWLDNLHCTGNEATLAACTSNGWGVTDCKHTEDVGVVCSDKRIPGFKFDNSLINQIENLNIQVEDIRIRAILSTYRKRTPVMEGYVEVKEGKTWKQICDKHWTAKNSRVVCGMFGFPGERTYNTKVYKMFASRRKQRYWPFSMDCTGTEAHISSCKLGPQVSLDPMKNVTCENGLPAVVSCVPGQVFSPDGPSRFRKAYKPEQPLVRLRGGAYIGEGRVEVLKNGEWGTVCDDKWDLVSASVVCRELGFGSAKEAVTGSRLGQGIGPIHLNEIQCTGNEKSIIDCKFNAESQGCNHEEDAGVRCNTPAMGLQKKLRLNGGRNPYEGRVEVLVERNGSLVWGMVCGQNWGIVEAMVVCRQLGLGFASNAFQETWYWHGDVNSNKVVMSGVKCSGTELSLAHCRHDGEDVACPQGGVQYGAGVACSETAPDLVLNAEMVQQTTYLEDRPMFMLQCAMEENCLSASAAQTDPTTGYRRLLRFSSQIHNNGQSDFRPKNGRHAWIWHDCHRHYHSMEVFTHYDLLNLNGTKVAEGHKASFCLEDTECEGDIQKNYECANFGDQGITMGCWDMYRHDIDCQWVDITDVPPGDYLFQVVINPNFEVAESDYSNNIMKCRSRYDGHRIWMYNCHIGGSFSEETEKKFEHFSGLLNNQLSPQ
Protocol: Preparation of insoluble cross-linked collagen. Fibroblasts were cultured on 10 cm dish until confluent. The medium was then changed to Dulbecco's modified Eagle's medium (DMEM) containing 5% FBS, 100 μM L-ascorbic acid with 500 kDa Dextran Sulfate at 100 μg/ml, and 50 ng/ml recombinant human LOXL2 (rhLOXL2) for 7 days^21,22. The cell layer was extracted with 0.5 M acetic acid and 0.1 mg/ml pepsin overnight at 4° C. The leftover insoluble fraction was further extracted and the insoluble cross-linked collagen measured using Sircol Insoluble Collagen Assay kit according to manufacture's instruction.

[6] = system: TGFβ1 signaling (p-smad3) in A549 cells; assay: TGFβ1-induced p-smad generation in cells (immunoblot); assay type: cell-based; conditions: 0.5-10 μM
Protocol: as §1

[7] = biological target: T3, ALK5/TGFβRI catalytic domain (Homo sapiens, UniProt P36897); assay: ALK5/TGFβRI catalytic domain kinase assay; assay type: biochemical
T3 construct: ALK5/TGFβRI kinase assays using purified catalytic domain was performed
T3 sequence (P36897 205-495 limits assumed): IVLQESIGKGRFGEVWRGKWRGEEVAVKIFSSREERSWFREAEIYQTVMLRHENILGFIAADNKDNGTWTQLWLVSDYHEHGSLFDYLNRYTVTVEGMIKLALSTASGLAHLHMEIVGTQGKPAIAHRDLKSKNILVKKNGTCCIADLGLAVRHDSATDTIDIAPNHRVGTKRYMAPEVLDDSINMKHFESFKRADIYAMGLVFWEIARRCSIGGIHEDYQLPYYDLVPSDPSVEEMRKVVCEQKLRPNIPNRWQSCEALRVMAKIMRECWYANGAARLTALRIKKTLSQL
Protocol: ALK5/TGFβRI catalytic domain kinase assay. ALK5/TGFβRI kinase assays using purified catalytic domain was performed. The reaction buffer contains 20 mM Hepes (pH 7.5), 10 mM MgCl2, 1 mM EGTA, 0.02% Brij35, 0.02 mg/ml BSA, 0.1 mM Na3VO4, 2 mM DTT, and 200 μM NAC. In brief, ten 3-fold series dilutions of 3Abd and 2Abd starting at 100 μM was delivered into kinase reaction mixture with kinase, cofactors, and substrate. After 20 min incubation at room temperature, ^33P-ATP was delivered into the mixture to initiate the reaction. Kinase activity was detected 2 h later by P81 filter-binding method.

Compound: Oc1cccc(Cl)c1O [3 Cc, 3-chlorocatechol]
- activity in a pull down kinase assay from cells overexpressing TGFβRI [1]: not

Compound: O=c1oc2c(O)c(O)cc3c(=O)oc4c(O)c(O)cc1c4c23 [EA, Ellagic acid]
- survival after intratracheal bleomycin ([2]; EA chow day 21, EA pump day 17): improve survival
- collagen accumulation after intratracheal bleomycin ([2]; ad libitum chow of 2% w/w raspberry extract rich in EA and EA precursors): substantially block
- solubility [3]: poorly soluble

Compound: Oc1cc(O)c2c(c1)O[C@H](c1ccc(O)c(O)c1)[C@H](O)C2 [EC, epicatechin]
- inhibition of snail 1 and fibronectin in TGFβ1 stimulated A549 cells [4]: no activity

Compound: Oc1cc(O)c2c(c1)O[C@H](c1cc(O)c(O)c(O)c1)[C@H](O)C2 [EGC, epigallocatechin]
- inhibition of snail 1 and fibronectin in TGFβ1 stimulated A549 cells [4]: potent inhibitor

- effect on collagen crosslinking induced by recombinant LOXL2 [5]: no effect
Compound: CC(=O)N[C@@H](CS)C(=O)O [NAC, N-acetylcysteine]

- effect on collagen crosslinking induced by recombinant LOXL2 [5]: no effect
Compound: NC(=O)c1ccc(-c2nc(-c3ccc4c(c3)OCO4)c(-c3ccccn3)[nH]2)cc1 [SB431542]

- direct inhibition of TGFβRI kinase activity [7]: not
Compound: Nc1c(O)cccc1O [Target 2Abd, 2-aminobenzene-1,3-diol]
- inhibition of TGFβ1-induced p-smad3 and snail 1 without pre-incubation and regardless of LOXL2 expression [6]: not

- activity in a pull down kinase assay from cells overexpressing TGFβRI [1]: blocked activity
- IC50 ([7]; ten doses starting from 100 μM, 33P-ATP): ~3 µM and 3 µM
Compound: Nc1cccc(O)c1O [Target 3Abd, 3-aminobenzene-1,2-diol]
- inhibition of TGFβ1-induced p-smad3 and snail 1 without pre-incubation and regardless of LOXL2 expression [6]: potent inhibitor
- direct inhibition of TGFβRI kinase activity [7]: directly inhibit; also recorded: directly blocked

Compound: Nc1ccc(O)c(O)c1 [Target 4Abd, 4-aminobenzene-1,2-diol]
- inhibition of TGFβ1-induced p-smad3 and snail 1 without pre-incubation and regardless of LOXL2 expression [6]: not
